A short description of series [1]: Aqueous solution stability (250 mg/ml) at room temperature. In kind it is physicochemical. The conditions noted are these: for pH of the aqueous solution: aqueous solution for parenteral injection.
Series [2] is described as follows: Solubility in organic solvents (methanol, acetone, methanol-acetone mixture). In kind it is physicochemical. The following applies: for solubility in methanol-acetone mixture: methanol-acetone containing 20% to 50% by volume methanol, room temperature or below. From the text: In carrying out the foregoing process, it is preferred to use sodium 2-ethylhexanoate as salt-forming reagent, but other reagents such as sodium acetate or the sodium salt of other carboxylic acids may be employed. A reaction inert organic solvent such as a liquid alkanol or ester, is preferably employed in combination with the ketone used as imidazolidinone-forming reagent as solvent. A minimal quantity of water may also be employed to facilitate dissolution. The preferred solvents are mixtures of methanol and acetone. […] Accordingly mixtures of these two solvents are employed to provide the desired differential solubility. Mixtures of methanol and acetone containing from 20% to 50% by volume of methanol are suitable. The antibiotic sodium salt 2,2-dimethylimidazolidinone derivative is insoluble in the methanol-acetone mixture at room temperature or below while the 2,2-dimethylimidazolidinone derivative sodium salt of the (E)-isomer is soluble. This difference in solubility provides a basis for the separation of these, otherwise very similar materials.

The next series can be described thus: Water solubility. In kind it is physicochemical.
Series [3] is described as follows: Solid state stability on storage (purity of sample). In kind it is physicochemical. The following applies: for remaining at 672 h: 4 Weeks.
For the next series, the system named is Gram-negative. The conditions noted are these: cited from earlier work.

Results on four compounds are retold here after patent US4727070A, “3-Propenzl cephalosporin isomer separation process and derivative” (Bristol-Myers Company, priority 1985, dated 1988).

In the case of `C/C=C\C1=C(C(=O)[O-])N2C(=O)C(NC(=O)[C@H](N)c3ccc(O)cc3)[C@H]2SC1.[Na+]` (stereo partly drawn) [sodium salt of the antibiotic, sodium 7-[D-2-amino-2-(4-hydroxyphenyl)acetamido]-3-((Z)-1-propenyl)ceph-3-em-4-carboxylate, reference compound], the “pH of the aqueous solution” value in series [1] is on record as 8.2. In addition, the “time to 10% potency loss in aqueous solution” value in series [1] (sodium salt of the antibiotic per se, solution pH 8.2) was determined as 30 min.

For `C/C=C\C1=C(C(=O)O)N2C(=O)C(N3C(=O)[C@@H](c4ccc(O)cc4)NC3(C)C)[C@H]2SC1` (some centres unmarked) [sodium 7-[2,2-dimethyl-4-(4-hydroxyphenyl)-5-oxo-1-imidazolidinyl]-3-[(Z)-1-propenyl]ceph-3-em-4-carboxylate], in series [2], the solubility in acetone entry is given as “substantially insoluble”, the solubility in methanol entry is recorded as “very soluble” and the “solubility in methanol-acetone mixture” value is “insoluble”. The water solubility entry in “Water solubility” is on record as “several hundred”. The “time to 10% potency loss in aqueous solution” value in series [1] (250 mg/ml aqueous solution, room temperature, pH 7.2) is on record as “approximately 2 hours”. Moreover, in series [1], the “pH of the aqueous solution” value amounted to 7.2. In series [3] (1 Day, 100 deg. C.), the share remaining at 24 h was found to be 80%. Also, the share remaining at 168 h in series [3] (1 Week, 70 deg. C.) came to 94%. In addition, the amount remaining at 672 h in series [3] (37 deg. C.) was 100%. Moreover, in series [3] (45 deg. C.), the share remaining at 672 h worked out at 102%. Further, in series [3] (56 deg. C.), the share remaining at 672 h worked out at 98.6%.

For the compound `C/C=C/C1=C(C(=O)O)N2C(=O)C(N3C(=O)[C@@H](c4ccc(O)cc4)NC3(C)C)C2SC1` (some centres unmarked) [acetonide of BMY-28167], in series [2], the solubility in acetone entry is reported as “substantially insoluble”, the solubility in methanol entry is on record as “very soluble” and the “solubility in methanol-acetone mixture” value is “soluble”.

Take `C/C=C\C1=C(C(=O)O)N2C(=O)C(NC(=O)[C@H](N)c3ccc(O)cc3)[C@H]2SC1` (stereo partly drawn) [BMY-28100, 7-[D-2-amino-2-(4-hydroxyphenyl)acetamido]-3-[(Z)-1-propenyl]ceph-3-em-4-carboxylic acid]: the “Gram-negative antibacterial activity compared to the (E)-isomer” value in the series on Gram-negative was “improved”.
